Among the data in ChEMBL document CHEMBL1909046, “DrugMatrix in vitro pharmacology data” are IC50 and Ki values, retold here.

The target of series [1] is Sigma non-opioid intracellular receptor 1 (Homo sapiens, UniProt Q99720). Nature of the series: DRUGMATRIX: Sigma1 radioligand binding (ligand: [3H] Haloperidol). The class given is cell membranes, Jurkat, Membrane. Conditions: Not Active = under 50% inhibition at 10 µM; for Ki: read-out: Ki.
For series [2], the target named is Vascular endothelial growth factor receptor 1 (Homo sapiens, UniProt P17948). The format is cell-based. To be noted: huvec. Further: in other assays of this panel Not Active means under 50% inhibition at 10 µM.
Sequence of Vascular endothelial growth factor receptor 1 (P17948 whole entry): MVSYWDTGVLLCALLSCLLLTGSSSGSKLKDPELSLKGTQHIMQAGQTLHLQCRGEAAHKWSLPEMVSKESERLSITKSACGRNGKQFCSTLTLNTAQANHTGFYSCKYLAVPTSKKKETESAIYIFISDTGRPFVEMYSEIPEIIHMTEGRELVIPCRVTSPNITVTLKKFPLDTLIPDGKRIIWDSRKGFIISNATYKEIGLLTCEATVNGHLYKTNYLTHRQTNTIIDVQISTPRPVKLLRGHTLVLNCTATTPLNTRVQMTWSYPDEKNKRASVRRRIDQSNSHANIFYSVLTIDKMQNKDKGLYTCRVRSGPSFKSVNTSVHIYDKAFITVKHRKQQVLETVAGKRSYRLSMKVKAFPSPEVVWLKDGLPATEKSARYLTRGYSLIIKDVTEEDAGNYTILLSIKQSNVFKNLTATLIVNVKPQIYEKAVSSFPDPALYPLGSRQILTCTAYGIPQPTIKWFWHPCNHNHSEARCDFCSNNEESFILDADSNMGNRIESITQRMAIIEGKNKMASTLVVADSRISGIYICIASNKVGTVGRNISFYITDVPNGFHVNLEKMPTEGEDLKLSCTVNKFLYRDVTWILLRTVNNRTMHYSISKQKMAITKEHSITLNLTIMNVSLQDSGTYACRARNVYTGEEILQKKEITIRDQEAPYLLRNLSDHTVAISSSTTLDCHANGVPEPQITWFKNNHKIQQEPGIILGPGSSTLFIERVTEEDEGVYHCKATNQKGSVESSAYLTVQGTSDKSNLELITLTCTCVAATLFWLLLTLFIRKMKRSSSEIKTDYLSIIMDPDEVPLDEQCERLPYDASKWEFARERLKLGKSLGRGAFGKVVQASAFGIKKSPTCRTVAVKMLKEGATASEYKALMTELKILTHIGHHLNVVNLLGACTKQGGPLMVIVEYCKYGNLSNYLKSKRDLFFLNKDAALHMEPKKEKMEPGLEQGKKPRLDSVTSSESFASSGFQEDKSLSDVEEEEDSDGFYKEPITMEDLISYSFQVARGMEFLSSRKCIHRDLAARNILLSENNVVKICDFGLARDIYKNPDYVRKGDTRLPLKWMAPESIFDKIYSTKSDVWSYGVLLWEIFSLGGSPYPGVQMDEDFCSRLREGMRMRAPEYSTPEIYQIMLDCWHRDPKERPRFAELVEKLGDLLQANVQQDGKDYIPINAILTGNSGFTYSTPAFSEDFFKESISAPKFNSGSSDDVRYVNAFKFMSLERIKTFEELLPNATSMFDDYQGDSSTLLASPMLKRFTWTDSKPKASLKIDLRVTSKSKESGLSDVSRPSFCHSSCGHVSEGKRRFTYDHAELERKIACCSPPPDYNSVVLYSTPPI
The target of series [3] is T1, Cholecystokinin receptor type A (Homo sapiens, UniProt P32238). Further: in other assays of this panel Not Active means under 50% inhibition at 10 µM.
T1 sequence (P32238 whole entry): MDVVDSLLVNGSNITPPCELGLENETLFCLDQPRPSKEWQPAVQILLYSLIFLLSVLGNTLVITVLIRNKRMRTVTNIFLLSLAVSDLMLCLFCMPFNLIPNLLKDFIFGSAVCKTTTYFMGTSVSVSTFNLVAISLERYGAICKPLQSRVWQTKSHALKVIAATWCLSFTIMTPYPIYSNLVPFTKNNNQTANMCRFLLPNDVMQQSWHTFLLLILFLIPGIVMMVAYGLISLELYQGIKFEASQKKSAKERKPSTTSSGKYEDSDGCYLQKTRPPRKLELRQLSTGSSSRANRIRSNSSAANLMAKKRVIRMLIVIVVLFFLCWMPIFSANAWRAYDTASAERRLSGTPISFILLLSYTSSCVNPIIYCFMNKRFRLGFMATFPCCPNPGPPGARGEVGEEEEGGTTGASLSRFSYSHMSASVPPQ
The format is cell membranes, Membrane. To be noted: 1321-n1.

For series [4], the target named is T2, 3-hydroxy-3-methylglutaryl-coenzyme A reductase (Homo sapiens, UniProt P04035).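 Further: enzyme inhibition assay of HMG-CoA reductase using radiolabeled [14C]HMG-CoA as substrate; in other assays of this panel Not Active means under 50% inhibition at 10 µM.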
T2 sequence (P04035 whole entry): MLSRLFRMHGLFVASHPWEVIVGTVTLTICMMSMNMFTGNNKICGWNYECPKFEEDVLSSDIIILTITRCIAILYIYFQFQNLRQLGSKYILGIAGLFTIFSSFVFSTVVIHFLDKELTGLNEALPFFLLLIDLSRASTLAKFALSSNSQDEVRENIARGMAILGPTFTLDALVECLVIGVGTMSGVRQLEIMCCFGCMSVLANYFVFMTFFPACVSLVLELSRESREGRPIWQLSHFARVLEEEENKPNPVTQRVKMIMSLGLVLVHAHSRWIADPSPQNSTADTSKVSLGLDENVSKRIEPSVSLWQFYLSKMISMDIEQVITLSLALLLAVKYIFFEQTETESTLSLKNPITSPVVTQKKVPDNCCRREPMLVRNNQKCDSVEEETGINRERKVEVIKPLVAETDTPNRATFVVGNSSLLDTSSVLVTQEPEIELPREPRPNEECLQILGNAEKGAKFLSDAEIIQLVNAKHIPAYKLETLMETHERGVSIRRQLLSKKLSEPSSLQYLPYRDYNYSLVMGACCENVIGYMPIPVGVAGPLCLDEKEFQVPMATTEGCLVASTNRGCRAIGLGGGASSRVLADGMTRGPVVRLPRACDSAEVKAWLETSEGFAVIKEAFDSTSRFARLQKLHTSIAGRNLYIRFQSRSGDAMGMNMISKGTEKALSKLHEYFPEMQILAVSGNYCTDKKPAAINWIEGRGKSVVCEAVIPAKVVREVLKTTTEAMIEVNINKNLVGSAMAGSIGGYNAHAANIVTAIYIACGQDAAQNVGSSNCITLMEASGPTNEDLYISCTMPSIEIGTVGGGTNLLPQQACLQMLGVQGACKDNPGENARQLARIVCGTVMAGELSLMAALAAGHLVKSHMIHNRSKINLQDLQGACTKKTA
The arrangement: species or system Escherichia coli.

Series [5] in a line: DRUGMATRIX: Potassium Channel [KATP] radioligand binding (ligand: [3H] Glyburide). The format is cell membranes, Membrane. Conditions: hit-t15; Not Active = under 50% inhibition at 10 µM.
Another series deals with T3, Progesterone receptor (Bos taurus, UniProt Q690N0).
T3 sequence (Q690N0 whole entry): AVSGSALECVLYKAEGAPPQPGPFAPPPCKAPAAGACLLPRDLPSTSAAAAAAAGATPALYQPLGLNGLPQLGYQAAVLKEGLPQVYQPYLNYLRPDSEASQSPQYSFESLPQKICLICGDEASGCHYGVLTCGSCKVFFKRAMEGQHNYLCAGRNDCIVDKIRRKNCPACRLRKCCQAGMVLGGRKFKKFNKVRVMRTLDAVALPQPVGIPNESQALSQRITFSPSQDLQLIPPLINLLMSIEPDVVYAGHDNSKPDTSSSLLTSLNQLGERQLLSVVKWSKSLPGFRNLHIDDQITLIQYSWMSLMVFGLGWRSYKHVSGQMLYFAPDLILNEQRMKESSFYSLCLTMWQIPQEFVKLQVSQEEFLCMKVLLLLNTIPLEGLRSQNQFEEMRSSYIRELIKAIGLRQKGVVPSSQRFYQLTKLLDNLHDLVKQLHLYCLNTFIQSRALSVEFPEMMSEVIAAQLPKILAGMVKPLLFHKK
Description: DRUGMATRIX: Progesterone radioligand binding (ligand: [3H] R-5020). The class given is tissue-based, Uterus. To be noted: Not Active = under 50% inhibition at 10 µM.

The next series has as its target T4, Neutrophil elastase (Homo sapiens, UniProt P08246).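 Further: inhibition of neutrophil elastase enzyme activity, measured with a p-nitroanilide-linked peptide substrate; in other assays of this panel Not Active means under 50% inhibition at 10 µM.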
T4 sequence (P08246 whole entry): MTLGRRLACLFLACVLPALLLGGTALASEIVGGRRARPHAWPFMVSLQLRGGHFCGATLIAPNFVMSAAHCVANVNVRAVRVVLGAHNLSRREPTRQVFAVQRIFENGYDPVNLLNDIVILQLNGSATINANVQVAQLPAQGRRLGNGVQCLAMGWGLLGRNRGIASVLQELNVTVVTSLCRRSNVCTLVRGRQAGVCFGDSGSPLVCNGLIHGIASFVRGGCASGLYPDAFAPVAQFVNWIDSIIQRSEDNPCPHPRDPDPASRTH
The format is tissue-based.

Series [6] addresses Epidermal growth factor receptor (Homo sapiens, UniProt P00533). Nature of the series: DRUGMATRIX: Protein Tyrosine Kinase, EGF Receptor enzyme inhibition (substrate: Poly(Glu:Tyr)). The class given is cell-based, Insect cells. To be noted: insect cells; Not Active = under 50% inhibition at 10 µM.
The target in the next series is Cytochrome P450 2C19 (Homo sapiens, UniProt P33261). Conditions: bti-tn-5b1-4. Further: in other assays of this panel Not Active means under 50% inhibition at 10 µM.
Sequence of Cytochrome P450 2C19 (P33261 whole entry): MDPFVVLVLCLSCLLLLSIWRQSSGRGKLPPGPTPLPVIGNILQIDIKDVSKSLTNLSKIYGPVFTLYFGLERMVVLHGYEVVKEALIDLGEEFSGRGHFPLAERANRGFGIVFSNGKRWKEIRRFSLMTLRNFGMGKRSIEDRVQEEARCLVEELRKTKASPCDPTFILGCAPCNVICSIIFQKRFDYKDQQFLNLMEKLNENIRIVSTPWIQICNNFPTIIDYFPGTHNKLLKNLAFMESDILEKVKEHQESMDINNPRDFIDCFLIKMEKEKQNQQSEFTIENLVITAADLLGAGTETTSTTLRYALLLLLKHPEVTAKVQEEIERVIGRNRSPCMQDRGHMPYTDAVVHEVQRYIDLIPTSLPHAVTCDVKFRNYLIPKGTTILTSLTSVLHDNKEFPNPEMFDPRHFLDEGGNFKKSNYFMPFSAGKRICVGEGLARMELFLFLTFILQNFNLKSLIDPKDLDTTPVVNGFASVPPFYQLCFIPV

Each structure is given as a SMILES string.

Sequence of Sigma non-opioid intracellular receptor 1 (Q99720 whole entry): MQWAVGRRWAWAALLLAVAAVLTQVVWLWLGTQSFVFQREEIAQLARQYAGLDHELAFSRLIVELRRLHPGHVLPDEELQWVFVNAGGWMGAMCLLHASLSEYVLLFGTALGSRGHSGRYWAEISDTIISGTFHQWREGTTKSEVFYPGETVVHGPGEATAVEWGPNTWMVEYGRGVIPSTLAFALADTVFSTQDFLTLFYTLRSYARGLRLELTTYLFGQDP
Sequence of Epidermal growth factor receptor (P00533 whole entry): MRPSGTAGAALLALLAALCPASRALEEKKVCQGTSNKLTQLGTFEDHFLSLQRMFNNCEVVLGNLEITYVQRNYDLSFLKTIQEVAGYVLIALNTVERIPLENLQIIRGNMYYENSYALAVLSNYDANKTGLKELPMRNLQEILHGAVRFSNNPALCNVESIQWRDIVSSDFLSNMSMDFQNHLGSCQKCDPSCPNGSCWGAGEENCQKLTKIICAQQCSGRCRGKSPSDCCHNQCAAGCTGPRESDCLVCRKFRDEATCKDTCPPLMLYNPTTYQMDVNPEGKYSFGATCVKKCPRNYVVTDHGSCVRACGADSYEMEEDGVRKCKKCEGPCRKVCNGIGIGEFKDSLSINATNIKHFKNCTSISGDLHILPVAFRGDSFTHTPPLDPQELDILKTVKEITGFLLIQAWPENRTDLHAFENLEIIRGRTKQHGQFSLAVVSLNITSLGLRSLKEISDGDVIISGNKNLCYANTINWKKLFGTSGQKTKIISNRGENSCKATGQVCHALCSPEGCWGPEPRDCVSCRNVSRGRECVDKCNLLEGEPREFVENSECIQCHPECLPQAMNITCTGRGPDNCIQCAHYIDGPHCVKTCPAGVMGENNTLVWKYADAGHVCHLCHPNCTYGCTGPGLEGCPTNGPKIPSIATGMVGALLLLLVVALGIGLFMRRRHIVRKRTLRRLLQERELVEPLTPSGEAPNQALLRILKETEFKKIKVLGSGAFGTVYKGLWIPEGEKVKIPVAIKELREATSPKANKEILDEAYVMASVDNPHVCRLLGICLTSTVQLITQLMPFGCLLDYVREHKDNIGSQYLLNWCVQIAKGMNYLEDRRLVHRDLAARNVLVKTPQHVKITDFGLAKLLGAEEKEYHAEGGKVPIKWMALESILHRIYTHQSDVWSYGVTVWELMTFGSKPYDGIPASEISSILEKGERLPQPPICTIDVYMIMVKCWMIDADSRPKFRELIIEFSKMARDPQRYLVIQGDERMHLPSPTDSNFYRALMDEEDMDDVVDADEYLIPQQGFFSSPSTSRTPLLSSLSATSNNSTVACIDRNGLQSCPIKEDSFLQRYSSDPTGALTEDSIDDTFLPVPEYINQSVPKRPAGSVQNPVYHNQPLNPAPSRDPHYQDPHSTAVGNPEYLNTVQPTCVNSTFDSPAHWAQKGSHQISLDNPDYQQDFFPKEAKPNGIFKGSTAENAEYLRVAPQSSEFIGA

In the case of `CN(C)CCCC1(c2ccc(F)cc2)OCc2cc(C#N)ccc21` (configuration not stated) [CITALOPRAM], the half-inhibitory concentration (IC50) is 398 nM in [1] (read-out: IC50); “Not Active” in series [2]; “Not Active” in series [3]; “Not Active” in series [4]; “Not Active” in series [5]; “Not Active” on Progesterone receptor. The IC50 result (against Neutrophil elastase; in [6]; against Cytochrome P450 2C19) was “Not Active” throughout. Also, the Ki was 167 nM in [1], “Not Active” in series [5] and “Not Active” at Cytochrome P450 2C19.

For `COC(=O)[C@H](c1ccccc1Cl)N1CCc2sccc2C1` [CLOPIDOGREL], the half-inhibitory concentration (IC50) result (in [1] (jurkat); in [2]; in series [3]; in [4]; in series [5]; at Progesterone receptor) was “Not Active” throughout. The IC50 result (at Neutrophil elastase; in series [6]; against Cytochrome P450 2C19) was “Not Active” throughout. The Ki result (in series [5]; on Cytochrome P450 2C19) was “Not Active” throughout.

With `C[C@]12CCC(=O)C=C1CC[C@@H]1[C@@H]2C(=O)C[C@@]2(C)[C@H]1CC[C@]2(O)C(=O)CO` [CORTISONE], the IC50 entry (in series [1] (jurkat); in series [2]; in series [3]; in series [4]; in series [5]; at Progesterone receptor) was “Not Active” throughout. For the same compound, the IC50 result (at Neutrophil elastase; in [6]; on Cytochrome P450 2C19) was “Not Active” in each case. Besides, the Ki result (in series [5]; on Cytochrome P450 2C19) was “Not Active” each time.

With `Cc1ccccc1N1CCN(CCc2nnc3n2CCCC3)CC1` [DAPIPRAZOLE], the IC50 result (in [1] (jurkat); in series [2]; in series [3]; in series [4]; in [5]; at Progesterone receptor) was “Not Active” in each case. Besides, the IC50 result (at Neutrophil elastase; in series [6]; on Cytochrome P450 2C19) was “Not Active” throughout. Further, the Ki entry (in series [5]; at Cytochrome P450 2C19) was “Not Active” in each case.

Regarding `CC1=Nc2ccc(Cl)cc2S(=O)(=O)N1` [DIAZOXIDE], the half-inhibitory concentration (IC50) entry (in series [1] (jurkat); in [2]; in [3]; in series [4]; in [5]; on Progesterone receptor) was “Not Active” in each case. Besides, the IC50 result (on Neutrophil elastase; in series [6]; against Cytochrome P450 2C19) was “Not Active” in each case. Besides, the Ki entry (in series [5]; at Cytochrome P450 2C19) was “Not Active” each time.

Turning to `CC(=O)OCC(=O)[C@@]1(OC(C)=O)[C@@H](C)C[C@H]2[C@@H]3C[C@H](F)C4=CC(=O)C=C[C@]4(C)[C@@]3(F)[C@@H](O)C[C@@]21C` [DIFLORASONE DIACETATE], the IC50 entry is “Not Active” in [1] (jurkat); “Not Active” in [2]; “Not Active” in [3]; “Not Active” in [4]; “Not Active” in series [5]; 116 nM at Progesterone receptor (read-out: IC50). Moreover, the concentration for half-maximal inhibition (IC50) entry (at Neutrophil elastase; in [6]; against Cytochrome P450 2C19) was “Not Active” each time. The results for the Ki entry (in series [5]; at Progesterone receptor (read-out: Ki); at Cytochrome P450 2C19) were “Not Active”, 15 nM and “Not Active”, respectively.

With `COc1ccc([C@@H]2Sc3ccccc3N(CCN(C)C)C(=O)[C@@H]2OC(C)=O)cc1` [DILTIAZEM], the IC50 result (in series [1] (jurkat); in series [2]; in [3]; in series [4]; in series [5]; on Progesterone receptor) was “Not Active” in each case. The IC50 result (against Neutrophil elastase; in series [6]; against Cytochrome P450 2C19) was “Not Active” each time. Moreover, the Ki result (in series [5]; on Cytochrome P450 2C19) was “Not Active” throughout.

Consider `CCc1ccc(C(=O)C(C)CN2CCCCC2)cc1` (configuration not stated) [EPERISONE], for which the half-maximal inhibitory concentration (IC50) in series [1] (read-out: IC50) is 4.05 nM; in series [2] it was “Not Active”; in [3] it was “Not Active”; in series [4], “Not Active”; in series [5], “Not Active”; at Progesterone receptor, “Not Active”. For the same compound, the half-inhibitory concentration (IC50) result (on Neutrophil elastase; in [6]; against Cytochrome P450 2C19) was “Not Active” each time. The Ki in series [1] is 1.7 nM; in series [5], “Not Active”; at Cytochrome P450 2C19, “Not Active”.

For the compound `C=C1CC[C@H](O)C/C1=C/C=C1\CCC[C@]2(C)[C@@H]([C@H](C)/C=C/[C@H](C)C(C)C)CC[C@@H]12` [ERGOCALCIFEROL], the IC50 result (in series [1] (jurkat); in series [2]; in [3]; in [4]; in [5]; on Progesterone receptor) was “Not Active” throughout. Besides, the IC50 result (at Neutrophil elastase; in series [6]; on Cytochrome P450 2C19) was “Not Active” in each case. Moreover, the Ki result (in series [5]; at Cytochrome P450 2C19) was “Not Active” each time.
